Where two headings read alike, the source gives them in different places.
Columns and labels:
[1] = target: wild-type un-phosphorylated FGFR3 (Homo sapiens, UniProt P22607); assay: FGFR Enzymatic Assay (FRET peptide phosphorylation), FGFR3
[2] = target: wild-type un-phosphorylated FGFR4 (Homo sapiens, UniProt P22455); assay: FGFR Enzymatic Assay (FRET peptide phosphorylation), FGFR4
[3] = target: wild-type un-phosphorylated FGFR1 (Homo sapiens, UniProt P11362); assay: FGFR Enzymatic Assay (FRET peptide phosphorylation), FGFR1; conditions: pre-incubated for 4 hours
Sequence of wild-type un-phosphorylated FGFR1 (P11362 22-822): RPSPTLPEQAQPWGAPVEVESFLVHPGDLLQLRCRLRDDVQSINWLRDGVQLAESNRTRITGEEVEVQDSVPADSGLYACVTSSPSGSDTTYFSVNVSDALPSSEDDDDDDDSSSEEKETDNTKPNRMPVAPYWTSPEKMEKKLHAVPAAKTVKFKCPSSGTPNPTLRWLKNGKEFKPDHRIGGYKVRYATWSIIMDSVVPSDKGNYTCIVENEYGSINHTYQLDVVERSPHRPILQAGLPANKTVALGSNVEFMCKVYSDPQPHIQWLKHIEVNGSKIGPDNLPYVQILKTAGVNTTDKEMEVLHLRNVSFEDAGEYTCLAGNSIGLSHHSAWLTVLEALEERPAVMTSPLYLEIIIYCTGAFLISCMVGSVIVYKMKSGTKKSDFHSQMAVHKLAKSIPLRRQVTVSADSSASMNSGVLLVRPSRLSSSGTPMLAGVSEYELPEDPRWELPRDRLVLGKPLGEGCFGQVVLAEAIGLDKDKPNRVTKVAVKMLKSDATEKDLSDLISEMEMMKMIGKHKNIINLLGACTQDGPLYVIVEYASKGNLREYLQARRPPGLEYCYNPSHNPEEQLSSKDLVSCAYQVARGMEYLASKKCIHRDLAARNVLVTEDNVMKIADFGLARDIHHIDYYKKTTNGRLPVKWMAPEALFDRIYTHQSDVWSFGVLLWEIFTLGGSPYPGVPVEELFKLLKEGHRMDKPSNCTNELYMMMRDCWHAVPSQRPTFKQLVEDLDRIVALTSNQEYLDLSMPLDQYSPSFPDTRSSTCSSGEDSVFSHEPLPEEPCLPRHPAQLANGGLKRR

[4] = target: wild-type un-phosphorylated FGFR2 (Homo sapiens, UniProt P21802); assay: FGFR Enzymatic Assay (FRET peptide phosphorylation), FGFR2
Sequence of wild-type un-phosphorylated FGFR2 (P21802 22-821): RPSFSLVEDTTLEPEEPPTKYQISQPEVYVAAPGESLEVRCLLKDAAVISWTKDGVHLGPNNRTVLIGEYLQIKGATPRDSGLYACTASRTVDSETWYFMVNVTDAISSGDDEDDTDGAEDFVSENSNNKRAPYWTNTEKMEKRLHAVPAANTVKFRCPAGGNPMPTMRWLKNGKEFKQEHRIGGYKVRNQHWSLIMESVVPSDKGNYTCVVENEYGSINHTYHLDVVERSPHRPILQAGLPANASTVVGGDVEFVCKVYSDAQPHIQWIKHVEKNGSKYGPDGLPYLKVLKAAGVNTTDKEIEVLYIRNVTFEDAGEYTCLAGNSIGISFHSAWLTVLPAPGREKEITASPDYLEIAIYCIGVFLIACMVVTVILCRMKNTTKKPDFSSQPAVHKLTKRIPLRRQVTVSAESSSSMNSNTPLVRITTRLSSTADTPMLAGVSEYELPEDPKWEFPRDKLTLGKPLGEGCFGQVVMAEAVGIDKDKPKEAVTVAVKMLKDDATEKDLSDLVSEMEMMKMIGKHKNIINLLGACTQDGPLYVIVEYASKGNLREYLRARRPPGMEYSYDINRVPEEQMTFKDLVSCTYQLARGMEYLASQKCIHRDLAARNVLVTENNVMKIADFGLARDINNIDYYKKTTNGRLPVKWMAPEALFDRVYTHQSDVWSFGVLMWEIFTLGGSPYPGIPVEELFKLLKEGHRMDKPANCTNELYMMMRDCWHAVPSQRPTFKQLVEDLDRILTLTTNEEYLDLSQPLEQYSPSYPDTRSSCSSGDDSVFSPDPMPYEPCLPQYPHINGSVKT

[5] = FGFR1, wild-type un-phosphorylated FGFR1
[6] = read-out: FGFR4, wild-type un-phosphorylated FGFR4, pre-incubated for 4 hours
[7] = read-out: FGFR1, wild-type un-phosphorylated FGFR1

Sequence of wild-type un-phosphorylated FGFR3 (P22607 23-806): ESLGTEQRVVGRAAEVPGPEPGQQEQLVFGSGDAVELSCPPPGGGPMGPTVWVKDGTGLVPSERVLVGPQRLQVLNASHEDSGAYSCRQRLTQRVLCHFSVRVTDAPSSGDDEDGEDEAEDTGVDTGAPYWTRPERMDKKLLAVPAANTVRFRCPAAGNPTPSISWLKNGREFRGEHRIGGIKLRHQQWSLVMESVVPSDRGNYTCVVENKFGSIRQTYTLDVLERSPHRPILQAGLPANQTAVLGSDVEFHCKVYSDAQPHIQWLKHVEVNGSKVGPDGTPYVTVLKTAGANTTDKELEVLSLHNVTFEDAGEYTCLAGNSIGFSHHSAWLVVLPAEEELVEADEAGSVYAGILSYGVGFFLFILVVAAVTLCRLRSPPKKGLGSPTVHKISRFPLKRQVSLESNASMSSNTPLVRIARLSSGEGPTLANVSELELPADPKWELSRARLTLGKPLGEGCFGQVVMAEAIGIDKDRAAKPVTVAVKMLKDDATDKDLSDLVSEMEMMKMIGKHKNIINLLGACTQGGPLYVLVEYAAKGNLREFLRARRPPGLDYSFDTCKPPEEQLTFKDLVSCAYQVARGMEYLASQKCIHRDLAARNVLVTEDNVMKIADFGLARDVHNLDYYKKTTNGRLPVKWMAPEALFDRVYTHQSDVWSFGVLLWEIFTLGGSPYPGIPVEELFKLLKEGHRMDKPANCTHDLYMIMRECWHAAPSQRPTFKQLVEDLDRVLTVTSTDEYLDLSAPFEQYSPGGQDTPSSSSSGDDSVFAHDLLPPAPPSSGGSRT
Sequence of wild-type un-phosphorylated FGFR4 (P22455 22-802): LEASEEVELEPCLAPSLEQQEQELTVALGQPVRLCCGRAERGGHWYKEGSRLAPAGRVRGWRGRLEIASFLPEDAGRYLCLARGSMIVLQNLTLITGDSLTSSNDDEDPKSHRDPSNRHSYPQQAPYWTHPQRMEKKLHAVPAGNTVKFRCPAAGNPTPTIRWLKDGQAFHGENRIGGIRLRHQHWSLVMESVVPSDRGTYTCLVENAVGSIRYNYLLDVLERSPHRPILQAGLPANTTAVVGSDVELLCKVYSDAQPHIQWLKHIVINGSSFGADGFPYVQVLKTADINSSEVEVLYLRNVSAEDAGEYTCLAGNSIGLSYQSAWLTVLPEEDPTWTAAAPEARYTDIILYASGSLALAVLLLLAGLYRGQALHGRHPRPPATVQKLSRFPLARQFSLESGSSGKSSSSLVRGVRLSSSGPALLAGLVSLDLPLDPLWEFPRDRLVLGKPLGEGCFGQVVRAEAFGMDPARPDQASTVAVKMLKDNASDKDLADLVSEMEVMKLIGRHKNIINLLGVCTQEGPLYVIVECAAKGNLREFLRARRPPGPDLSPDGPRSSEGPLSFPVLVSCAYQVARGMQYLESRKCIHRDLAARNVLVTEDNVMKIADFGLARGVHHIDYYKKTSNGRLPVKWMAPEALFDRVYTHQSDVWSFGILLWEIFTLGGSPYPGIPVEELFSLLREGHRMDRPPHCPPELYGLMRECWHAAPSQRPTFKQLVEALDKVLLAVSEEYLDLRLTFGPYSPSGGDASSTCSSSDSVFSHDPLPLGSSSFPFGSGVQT

| Structure (SMILES) | IC50 [1] | IC50 [2] | IC50 [3, 5] | IC50 [4] | IC50 [2, 6] | IC50 [3, 7] |
| --- | --- | --- | --- | --- | --- | --- |
| COc1cc2[nH]nc(-c3cnn(C4CN(C)C4)c3)c2nc1-c1cccc2c1CCC2 [Example 17, 5-(2,3-Dihydro-1H-inden-4-yl)-6-methoxy-3-(1-(1-methylazetidin-3-yl)-1H-pyrazol-4-yl)-1H-pyrazolo[4,3-b]pyridine] | < 6 nM | > 100 nM | 40 to 100 nM | < 6 nM |  |  |
| COc1cc2[nH]nc(-c3ccc(C4CCN(C(C)=O)CC4)nc3)c2nc1-c1cccc2c1CCC2 [Example 99, 1-(4-(5-(5-(2,3-Dihydro-1H-inden-4-yl)-6-methoxy-1H-pyrazolo[4,3-b]pyridin-3-yl)pyridin-2-yl)piperidin-1-yl)ethan-1-one] | < 6 nM |  |  | < 6 nM | 6 to 40 nM | 6 to 40 nM |
| CCN1CC(n2cc(-c3n[nH]c4cc(OC)c(-c5cccc6c5CCC6)nc34)cn2)C1 [Example 18, 5-(2,3-Dihydro-1H-inden-4-yl)-3-(1-(1-ethylazetidin-3-yl)-1H-pyrazol-4-yl)-6-methoxy-1H-pyrazolo[4,3-b]pyridine] | < 6 nM | > 100 nM | 40 to 100 nM | < 6 nM |  |  |
| COc1cc2[nH]nc(-c3ccc(C4CCN(C(=O)CO)CC4)nc3)c2nc1-c1cccc2c1CCC2C#N (stereo not drawn) [Example 115, 4-(3-(6-(1-(2-Hydroxyacetyl)piperidin-4-yl)pyridin-3-yl)-6-methoxy-1H-pyrazolo[4,3-b]pyridin-5-yl)-2,3-dihydro-1H-indene-1-carbonitrile] | < 6 nM |  |  | < 6 nM | 6 to 40 nM | 6 to 40 nM |
| COc1cc2[nH]nc(-c3ccc(C45CC4CN(CCO)C5)nc3)c2nc1-c1cccc2c1CCC2 (stereo not drawn) [Example 194A, 2-(1-(5-(5-(2,3-Dihydro-1H-inden-4-yl)-6-methoxy-1H-pyrazolo[4,3-b]pyridin-3-yl)pyridin-2-yl)-3-azabicyclo[3.1.0]hexan-3-yl)ethan-1-ol] | < 6 nM |  |  | < 6 nM | 6 to 40 nM | 6 to 40 nM |
| COc1cc2[nH]nc(-c3cnn(C4CN(C(=O)CO)C4)c3)c2nc1-c1cccc2c1CCC2 [Example 116, 1-(3-(4-(5-(2,3-Dihydro-1H-inden-4-yl)-6-methoxy-1H-pyrazolo[4,3-b]pyridin-3-yl)-1H-pyrazol-1-yl)azetidin-1-yl)-2-hydroxyethan-1-one] | < 6 nM | 40 to 100 nM |  | < 6 nM |  | 6 to 40 nM |
| COc1cc2[nH]nc(-c3ccc(C4(C#N)CCN(C(=O)CO)CC4)nc3)c2nc1-c1cccc2c1CCC2 [Example 165, 4-(5-(5-(2,3-Dihydro-1H-inden-4-yl)-6-methoxy-1H-pyrazolo[4,3-b]pyridin-3-yl)pyridin-2-yl)-1-(2-hydroxyacetyl)piperidine-4-carbonitrile] | < 6 nM |  |  | < 6 nM | 6 to 40 nM | 6 to 40 nM |
| COc1cc2[nH]nc(-c3ccc(C4(C#N)CCN(C(=O)CO)C4)nc3)c2nc1-c1cccc2c1CCC2 (stereo not drawn) [Example 198, 3-(5-(5-(2,3-Dihydro-1H-inden-4-yl)-6-methoxy-1H-pyrazolo[4,3-b]pyridin-3-yl)pyridin-2-yl)-1-(2-hydroxyacetyl)pyrrolidine-3-carbonitrile] | < 6 nM | 40 to 100 nM |  | < 6 nM |  | 6 to 40 nM |
| COc1cc2[nH]nc(-c3cnn([C@H]4CCN(C(=O)[C@H]5C[C@H](O)C5)C4)c3)c2nc1-c1cccc2c1CCC2 [Example 144, ((S)-3-(4-(5-(2,3-Dihydro-1H-inden-4-yl)-6-methoxy-1H-pyrazolo[4,3-b]pyridin-3-yl)-1H-pyrazol-1-yl)pyrrolidin-1-yl)((trans)-3-hydroxycyclobutyl)methanone] | < 6 nM |  |  | < 6 nM | 6 to 40 nM | 6 to 40 nM |

From patent publication US12083124B2 (Incyte Corporation, priority 2019, dated 2024)
